Results as given in the NIST ThermoML archive (doi:10.1021/je100100n).

Assay: xn = mol fraction of the nth substance listed
Settings: 101 kPa, Liquid

CCOC(=O)CC(=O)OCC [diethyl 1,3-propanedioate] + CC(C)CO
mass density [kg/m3]
Settings | 288.15 K | 298.15 K | 313.15 K | 328.15 K
x1 = 0.1 | 843.381 | 835.034 | 822.221 | 808.976
x1 = 0.2 | 877.394 | 868.517 | 854.953 | 841.015
x1 = 0.3 | 908.051 | 898.746 | 884.583 | 870.102
x1 = 0.35 | 922.305 | 912.816 | 898.402 | 885.344
x1 = 0.3999 | 935.772 | 926.126 | 911.47 | 896.55
x1 = 0.4495 | 948.602 | 938.806 | 923.966 | 908.867
x1 = 0.5001 | 961.044 | 951.116 | 936.085 | 920.835
x1 = 0.6001 | 984.156 | 973.999 | 958.66 | 943.14
x1 = 0.6999 | 1005.33 | 995.001 | 979.414 | 963.679
x1 = 0.8003 | 1025.06 | 1014.57 | 998.792 | 982.885
x1 = 0.9 | 1043.28 | 1032.67 | 1016.71 | 1000.67
x1 = 1 | 1060.33 | 1049.6 | 1033.5 | 1017.34

CCOC(=O)CC(=O)OCC [diethyl 1,3-propanedioate] + CCCCCO
mass density [kg/m3]
Settings | 288.15 K | 298.15 K | 313.15 K | 328.15 K
x1 = 0.0999 | 849.562 | 841.661 | 829.624 | 817.296
x1 = 0.1998 | 878.757 | 870.343 | 857.553 | 844.519
x1 = 0.2999 | 906.036 | 897.187 | 883.774 | 870.127
x1 = 0.3498 | 919.092 | 910.054 | 896.347 | 882.426
x1 = 0.3997 | 931.801 | 922.576 | 908.607 | 894.428
x1 = 0.4499 | 944.204 | 934.797 | 920.565 | 906.141
x1 = 0.4999 | 956.145 | 946.568 | 932.101 | 917.475
x1 = 0.5501 | 967.903 | 958.185 | 943.506 | 928.648
x1 = 0.599 | 978.962 | 969.118 | 954.233 | 939.199
x1 = 0.65 | 990.137 | 980.151 | 965.074 | 949.864
x1 = 0.6997 | 1000.81 | 990.684 | 975.442 | 960.07
x1 = 0.7997 | 1021.52 | 1011.18 | 995.601 | 979.945
x1 = 0.9 | 1041.37 | 1030.84 | 1015 | 999.065
x1 = 1 | 1060.33 | 1049.6 | 1033.5 | 1017.34

CC(C)CO [2-methyl-1-propanol] + CCOC(=O)CC(=O)OCC
x2 = 0
Settings | mass density [kg/m3]
288.15 K | 805.6
298.15 K | 797.916
313.15 K | 786.069
328.15 K | 773.692

CCCCCO [pentan-1-ol] + CCOC(=O)CC(=O)OCC
x2 = 0
Settings | mass density [kg/m3]
288.15 K | 818.801
298.15 K | 811.465
313.15 K | 800.264
328.15 K | 788.737
